Test results published in ChEMBL document CHEMBL4414613, “Antibacterial 5α-Spirostane Saponins from the Fruit of Cordyline manners-suttoniae” (J Nat Prod, 2019).
Values after ≈ are worked out from the molar mass of the structure shown. Active and inactive are the calls of the source. No cut-off for these calls is given here.

Tests used:
NHDF = assay: Cytotoxicity against human HDF cells assessed as reduction in cell viability incubated for 7 days by CellTiter 96 aqueous one solution assay; format: functional, cell-based; settings: 168 h
HaCaT = assay: Cytotoxicity against human HaCaT cells assessed as reduction in cell viability incubated for 4 days by CellTiter 96 aqueous one solution assay; format: cell-based; settings: 96 h
Enterococcus faecium [1] = assay: Bactericidal activity against Enterococcus faecium C15 at 90 uM incubated for 24 hrs by microdilution assay; format: functional, organism-based
Klebsiella aerogenes [2] = assay: Bactericidal activity against Enterobacter aerogenes ATCC 13048 at 90 uM incubated for 24 hrs by microdilution assay; format: functional
Klebsiella pneumoniae [3] = assay: Bactericidal activity against Klebsiella pneumoniae ATCC 12657 at 90 uM incubated for 24 hrs by microdilution assay; format: functional, organism-based
Enterococcus faecium [4] = assay: Bactericidal activity against Enterococcus faecium ATCC 35667 at 90 uM incubated for 24 hrs by microdilution assay; format: functional, organism-based
Staphylococcus aureus [5] = assay: Antibacterial activity against Staphylococcus aureus ATCC 29247 at 90 uM incubated for 24 hrs by microdilution assay; format: functional, organism-based
Acinetobacter baumannii [6] = assay: Bactericidal activity against Acinetobacter baumannii ATCC 19606 at 90 uM incubated for 24 hrs by microdilution assay; format: functional, organism-based; settings: ATCC 19606 = CIP 70.34 = JCM 6841
Staphylococcus aureus [7] = assay: Antibacterial activity against Staphylococcus aureus ATCC 25923 at 90 uM incubated for 24 hrs by microdilution assay; format: functional, organism-based
[8] = system: Enterobacter cloacae subsp. cloacae; assay: Antibacterial activity against Enterobacter cloacae ATCC 13047 at 90 uM incubated for 24 hrs by microdilution assay; format: functional
Acinetobacter baumannii [9] = assay: Bactericidal activity against Acinetobacter baumannii ATCC 17978 at 90 uM incubated for 24 hrs by microdilution assay; format: functional, organism-based
Pseudomonas aeruginosa [10] = assay: Bactericidal activity against Pseudomonas aeruginosa ATCC 49189 at 90 uM incubated for 24 hrs by microdilution assay; format: functional, organism-based
Enterococcus faecium [11] = assay: Antibacterial activity against Enterococcus faecium C15 incubated for 24 hrs by microdilution assay; format: functional
Acinetobacter baumannii [12] = assay: Antibacterial activity against Acinetobacter baumannii ATCC 17978 at 90 uM incubated for 24 hrs by microdilution assay; format: functional, organism-based
Staphylococcus aureus [13] = assay: Bactericidal activity against Staphylococcus aureus ATCC 29247 at 90 uM incubated for 24 hrs by microdilution assay; format: functional, organism-based
Klebsiella pneumoniae [14] = assay: Antibacterial activity against Klebsiella pneumoniae ATCC 13883 at 90 uM incubated for 24 hrs by microdilution assay; format: functional, organism-based
Staphylococcus aureus [15] = assay: Bactericidal activity against Staphylococcus aureus ATCC 25923 at 90 uM incubated for 24 hrs by microdilution assay; format: functional, organism-based
Enterococcus faecium [16] = assay: Antibacterial activity against Enterococcus faecium ATCC 35667 at 90 uM incubated for 24 hrs by microdilution assay; format: functional, organism-based
Klebsiella pneumoniae [17] = assay: Bactericidal activity against Klebsiella pneumoniae ATCC 13883 at 90 uM incubated for 24 hrs by microdilution assay; format: functional, organism-based
Klebsiella pneumoniae [18] = assay: Antibacterial activity against Klebsiella pneumoniae ATCC 12657 at 90 uM incubated for 24 hrs by microdilution assay; format: functional, organism-based
Pseudomonas aeruginosa [19] = assay: Antibacterial activity against Pseudomonas aeruginosa ATCC 10145 at 90 uM incubated for 24 hrs by microdilution assay; format: functional, organism-based
Klebsiella aerogenes [20] = assay: Antibacterial activity against Enterobacter aerogenes ATCC 13048 at 90 uM incubated for 24 hrs by microdilution assay; format: functional
[21] = system: Enterobacter cloacae subsp. cloacae; assay: Bactericidal activity against Enterobacter cloacae ATCC 13047 at 90 uM incubated for 24 hrs by microdilution assay; format: functional
Acinetobacter baumannii [22] = assay: Antibacterial activity against Acinetobacter baumannii ATCC 19606 at 90 uM incubated for 24 hrs by microdilution assay; format: functional, organism-based; settings: ATCC 19606 = CIP 70.34 = JCM 6841
Pseudomonas aeruginosa [23] = assay: Bactericidal activity against Pseudomonas aeruginosa ATCC 10145 at 90 uM incubated for 24 hrs by microdilution assay; format: functional, organism-based
[24] = Selectivity ratio of IC50 for human HaCaT cells to IC50 for human HDF cells by CellTiter 96 aqueous one solution assay
Pseudomonas aeruginosa [25] = assay: Antibacterial activity against Pseudomonas aeruginosa ATCC 49189 at 90 uM incubated for 24 hrs by microdilution assay; format: functional, organism-based
Enterococcus faecium [26] = assay: Bactericidal activity against Enterococcus faecium ATCC 35667 incubated for 24 hrs by microdilution assay; format: functional; settings: ATCC 35667, 24 h
Staphylococcus aureus [27] = assay: Antibacterial activity against Staphylococcus aureus ATCC 29247 incubated for 24 hrs by microdilution assay; format: functional
Enterococcus faecium [28] = assay: Bactericidal activity against Enterococcus faecium C15 incubated for 24 hrs by microdilution assay; format: functional; settings: C15, 24 h
Staphylococcus aureus [29] = assay: Antibacterial activity against Staphylococcus aureus ATCC 25923 incubated for 24 hrs by microdilution assay; format: functional
Enterococcus faecium [30] = assay: Antibacterial activity against Enterococcus faecium ATCC 35667 incubated for 24 hrs by microdilution assay; format: functional

`COc1cccc2c1C(=O)c1c(O)c3c(c(O)c1C2=O)C[C@@](O)(C(=O)CO)C[C@@H]3O[C@H]1C[C@H](N)[C@H](O)[C@H](C)O1` [DOXORUBICIN] gave an IC50 (NHDF) of 0.011 µM and an IC50 (HaCaT) of 0.01 µM.

With `C=C1CC[C@]2(OC1)O[C@H]1C[C@H]3[C@@H]4CC[C@H]5[C@H](O)[C@@H](O)C[C@@H](O[C@@H]6O[C@H](C)[C@H](O)[C@H](O)[C@H]6O)[C@]5(C)[C@H]4CC[C@]3(C)[C@H]1[C@@H]2C` the Activity (Enterococcus faecium [1]) was “inactive”, the Activity (Klebsiella aerogenes [2]) was “inactive” and the Activity (Klebsiella pneumoniae [3]) was “inactive”. The IC50 (NHDF) was 8.9 µM, the Activity (Enterococcus faecium [4]) was “inactive” and the Activity (Staphylococcus aureus [5]) was “inactive”. For the same molecule, the Activity (Acinetobacter baumannii [6]) was “inactive”, the Activity (Staphylococcus aureus [7]) was “inactive” and the Activity [8] was “inactive”. The Activity (Acinetobacter baumannii [9]) was “inactive”, the Activity (Pseudomonas aeruginosa [10]) was “inactive” and the MIC75 (Enterococcus faecium [11]) was 84.3 µM (≈ 50 µg/mL). For the same molecule, the Activity (Acinetobacter baumannii [12]) was “inactive”, the Activity (Staphylococcus aureus [13]) was “inactive” and the Activity (Klebsiella pneumoniae [14]) was “inactive”. The Activity (Staphylococcus aureus [15]) was “inactive”, the Activity (Enterococcus faecium [16]) was “inactive” and the Activity (Klebsiella pneumoniae [17]) was “inactive”. The Activity (Klebsiella pneumoniae [18]) was “inactive”, the Activity (Pseudomonas aeruginosa [19]) was “inactive” and the Activity (Klebsiella aerogenes [20]) was “inactive”. The Activity [21] was “inactive”, the Activity (Acinetobacter baumannii [22]) was “inactive” and the Activity (Pseudomonas aeruginosa [23]) was “inactive”. For the same molecule, the IC50 (HaCaT) was 42.1 µM, the “Ratio IC50” value [24] was 3 - 11 and the Activity (Pseudomonas aeruginosa [25]) was “inactive”.

In the case of `C=C1CC[C@]2(OC1)O[C@H]1C[C@H]3[C@@H]4CC[C@H]5C[C@H](O)C[C@@H](O[C@@H]6O[C@H](C)[C@H](O)[C@H](O)[C@H]6O)[C@]5(C)[C@H]4CC[C@]3(C)[C@H]1[C@@H]2C`, the Activity (Klebsiella aerogenes [2]) is reported as “inactive”, the MBC (Enterococcus faecium [26]) is reported as 86.4 µM (≈ 49.8 µg/mL) and the Activity (Klebsiella pneumoniae [3]) is reported as “inactive”. The IC50 (NHDF) was 8.3 µM, the MIC75 (Staphylococcus aureus [27]) was 21.7 µM (≈ 12.5 µg/mL) and the Activity (Acinetobacter baumannii [6]) was “inactive”. The Activity [8] was “inactive”, the Activity (Acinetobacter baumannii [9]) was “inactive” and the Activity (Pseudomonas aeruginosa [10]) was “inactive”. For the same molecule, the MIC75 (Enterococcus faecium [11]) was 21.7 µM (≈ 12.5 µg/mL), the Activity (Acinetobacter baumannii [12]) was “inactive” and the Activity (Staphylococcus aureus [13]) was “inactive”. For the same molecule, the Activity (Klebsiella pneumoniae [14]) was “inactive”, the MBC (Enterococcus faecium [28]) was 86.4 µM (≈ 49.8 µg/mL) and the Activity (Staphylococcus aureus [15]) was “inactive”. The Activity (Klebsiella pneumoniae [17]) was “inactive”, the Activity (Klebsiella pneumoniae [18]) was “inactive” and the MIC75 (Staphylococcus aureus [29]) was 21.7 µM (≈ 12.5 µg/mL). The Activity (Pseudomonas aeruginosa [19]) was “inactive”, the Activity (Klebsiella aerogenes [20]) was “inactive” and the Activity [21] was “inactive”. The Activity (Acinetobacter baumannii [22]) was “inactive”, the Activity (Pseudomonas aeruginosa [23]) was “inactive” and the MIC75 (Enterococcus faecium [30]) was 43.3 µM (≈ 25 µg/mL). The IC50 (HaCaT) was 38.9 µM, the “Ratio IC50” value [24] was 3 - 11 and the Activity (Pseudomonas aeruginosa [25]) was “inactive”.

With `C[C@@H]1CC[C@]2(OC1)O[C@H]1C[C@H]3[C@@H]4CC[C@H]5C[C@H](O)C[C@@H](O[C@@H]6O[C@H](C)[C@H](O)[C@H](O)[C@H]6O)[C@]5(C)[C@H]4CC[C@]3(C)[C@H]1[C@@H]2C` the Activity (Klebsiella aerogenes [2]) was “inactive”, the MBC (Enterococcus faecium [26]) was 86.4 µM (≈ 50 µg/mL) and the Activity (Klebsiella pneumoniae [3]) was “inactive”. The IC50 (NHDF) was 7.5 µM, the MIC75 (Staphylococcus aureus [27]) was 43.2 µM (≈ 25 µg/mL) and the Activity (Acinetobacter baumannii [6]) was “inactive”. The Activity [8] was “inactive”, the Activity (Acinetobacter baumannii [9]) was “inactive” and the Activity (Pseudomonas aeruginosa [10]) was “inactive”. For the same molecule, the MIC75 (Enterococcus faecium [11]) was 43.2 µM (≈ 25 µg/mL), the Activity (Acinetobacter baumannii [12]) was “inactive” and the Activity (Staphylococcus aureus [13]) was “inactive”. The Activity (Klebsiella pneumoniae [14]) was “inactive”, the MBC (Enterococcus faecium [28]) was 86.4 µM (≈ 50 µg/mL) and the Activity (Staphylococcus aureus [15]) was “inactive”. For the same molecule, the Activity (Klebsiella pneumoniae [17]) was “inactive”, the Activity (Klebsiella pneumoniae [18]) was “inactive” and the MIC75 (Staphylococcus aureus [29]) was 43.2 µM (≈ 25 µg/mL). For the same molecule, the Activity (Pseudomonas aeruginosa [19]) was “inactive”, the Activity (Klebsiella aerogenes [20]) was “inactive” and the Activity [21] was “inactive”. For the same molecule, the Activity (Acinetobacter baumannii [22]) was “inactive”, the Activity (Pseudomonas aeruginosa [23]) was “inactive” and the MIC75 (Enterococcus faecium [30]) was 43.2 µM (≈ 25 µg/mL). The IC50 (HaCaT) was 36.5 µM, the “Ratio IC50” value [24] was 3 - 11 and the Activity (Pseudomonas aeruginosa [25]) was “inactive”.
